Results as given in patent publication US9573956B2, “Compounds as dual inhibitors of phosphodiesterases and histone deacetylases” (FUNDACIÓN PARA LA INVESTIGACIÓN MÉDICA APLICADA, priority 2013, dated 2017).

Experiments:
Type in all cases: biochemical
HDAC6 = target: T1, HDAC6 (Homo sapiens, UniProt Q9UBN7); assay: HDAC enzyme activity assay (fluorogenic substrate), HDAC6; settings: recombinant enzyme; read-out: HDAC6 inhibition (IC50)
T1 construct: BC069243; Cat. #50006) is full-length with N-terminal GST tag; GST (N); purchased BPS Biosciences 50006; host or cells: baculovirus infected Sf9 cells
T1 sequence (Q9UBN7 1-1215): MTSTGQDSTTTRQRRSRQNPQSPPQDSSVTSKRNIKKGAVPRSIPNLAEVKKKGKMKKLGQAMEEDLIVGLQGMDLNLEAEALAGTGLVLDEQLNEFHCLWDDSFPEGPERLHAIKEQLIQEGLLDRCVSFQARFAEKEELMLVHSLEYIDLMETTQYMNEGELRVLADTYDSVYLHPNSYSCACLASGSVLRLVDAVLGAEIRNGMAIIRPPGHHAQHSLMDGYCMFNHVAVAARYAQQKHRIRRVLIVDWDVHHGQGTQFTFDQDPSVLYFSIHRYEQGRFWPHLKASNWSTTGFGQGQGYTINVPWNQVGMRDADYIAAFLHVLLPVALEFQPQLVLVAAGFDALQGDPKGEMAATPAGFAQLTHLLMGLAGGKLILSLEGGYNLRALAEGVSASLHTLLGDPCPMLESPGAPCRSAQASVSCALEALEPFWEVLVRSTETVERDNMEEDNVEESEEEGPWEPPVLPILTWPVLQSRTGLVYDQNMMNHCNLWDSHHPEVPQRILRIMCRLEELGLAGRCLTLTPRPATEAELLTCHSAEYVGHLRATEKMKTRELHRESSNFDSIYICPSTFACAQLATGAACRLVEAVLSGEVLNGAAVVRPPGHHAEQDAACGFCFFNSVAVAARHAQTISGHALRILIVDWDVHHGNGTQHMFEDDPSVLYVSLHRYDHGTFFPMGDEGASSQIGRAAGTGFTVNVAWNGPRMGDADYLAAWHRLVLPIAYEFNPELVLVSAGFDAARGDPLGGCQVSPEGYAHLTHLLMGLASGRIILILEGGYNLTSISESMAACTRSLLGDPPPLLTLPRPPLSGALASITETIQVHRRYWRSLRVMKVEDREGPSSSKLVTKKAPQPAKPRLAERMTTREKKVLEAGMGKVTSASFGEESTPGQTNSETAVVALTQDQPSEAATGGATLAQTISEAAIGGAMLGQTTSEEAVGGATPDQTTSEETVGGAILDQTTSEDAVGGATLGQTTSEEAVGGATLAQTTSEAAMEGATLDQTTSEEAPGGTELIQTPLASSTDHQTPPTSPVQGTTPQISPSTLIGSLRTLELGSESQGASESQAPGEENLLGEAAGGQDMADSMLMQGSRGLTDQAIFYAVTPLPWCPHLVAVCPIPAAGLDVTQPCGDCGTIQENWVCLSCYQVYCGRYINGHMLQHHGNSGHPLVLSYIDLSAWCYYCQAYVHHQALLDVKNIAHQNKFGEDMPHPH

PDE5A = target: T2, PDE5A (Homo sapiens, UniProt O76074); assay: PDE enzyme activity assay (HTRF cGMP), PDE5A; settings: recombinant enzyme; read-out: PDE5A1 inhibition (IC50)
T2 construct: they are full-length with N-terminal GST tag; GST (N); purchased BPS Biosciences 60050; host or cells: baculovirus infected Sf9 cells

HDAC1 = HDAC1 (Homo sapiens, UniProt Q13547); assay: HDAC enzyme activity assay (fluorogenic substrate), HDAC1; settings: recombinant enzyme; read-out: HDAC1 inhibition (IC50)
Chain of HDAC1 (Q13547 whole entry): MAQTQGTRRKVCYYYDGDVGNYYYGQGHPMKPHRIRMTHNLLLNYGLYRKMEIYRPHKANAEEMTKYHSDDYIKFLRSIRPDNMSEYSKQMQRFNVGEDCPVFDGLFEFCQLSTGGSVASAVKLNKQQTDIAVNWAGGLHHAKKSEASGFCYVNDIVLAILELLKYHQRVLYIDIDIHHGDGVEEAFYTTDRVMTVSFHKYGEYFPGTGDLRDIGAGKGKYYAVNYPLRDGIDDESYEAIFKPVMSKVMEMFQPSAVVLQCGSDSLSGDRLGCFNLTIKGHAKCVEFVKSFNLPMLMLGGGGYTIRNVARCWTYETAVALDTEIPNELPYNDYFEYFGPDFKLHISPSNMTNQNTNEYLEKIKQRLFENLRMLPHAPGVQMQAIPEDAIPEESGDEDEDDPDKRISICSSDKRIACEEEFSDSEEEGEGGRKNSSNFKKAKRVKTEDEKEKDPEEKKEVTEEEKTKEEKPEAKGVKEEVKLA

CCCc1nn(C)c2c(=O)[nH]c(-c3cc(C(OC)c4ccc(C(=O)NO)cc4)ccc3OCC)nc12 (stereo not drawn) [Example 1-77, 4-[[4-ethoxy-3-(1-methyl-7-oxo-3-propyl-6H-pyrazolo[4,3-d]pyrimidin-5-yl)phenyl]-methoxy-methyl]benzenecarbohydroxamic acid]
IC50 (HDAC6): 0.01 to 1 µM
IC50 (PDE5A): 0.01 to 1 µM

CCCc1nn(C)c2c(=O)[nH]c(-c3cc(C(=O)c4ccc(C(=O)NO)s4)ccc3OCC)nc12 [Example 1-79, 5-[4-ethoxy-3-(1-methyl-7-oxo-3-propyl-6H-pyrazolo[4,3-d]pyrimidin-5-yl)benzoyl]thiophene-2-carbohydroxamic acid]
IC50 (HDAC6): 0.01 to 1 µM
IC50 (PDE5A): < 0.01 µM

CCCc1nn(C)c2c(=O)[nH]c(-c3cc(OCC4CCN(c5ncc(C(=O)NO)cn5)CC4)ccc3OCC)nc12 [Example 1-11, N-Hydroxy-2-(4-[3-(6,7-dihydro-1-methyl-7-oxo-3-propyl-1H-pyrazolo[4,3-d]pyrimidin-5-yl)-4-ethoxyphenoxymethyl]-piperidin-1-yl)pyrimidine-5-carboxamide]
IC50 (HDAC1): 0.01 to 1 µM
IC50 (PDE5A): 1 to 10 µM

CCCc1nn(C)c2c(=O)[nH]c(-c3cc(CC4CCC(C(=O)NO)C4)ccc3OCC)nc12 (stereo not drawn) [Example 1-83, 3-[[4-ethoxy-3-(1-methyl-7-oxo-3-propyl-6H-pyrazolo[4,3-d]pyrimidin-5-yl)phenyl]methyl]cyclopentanecarbohydroxamic acid]
IC50 (HDAC6): 0.01 to 1 µM
IC50 (PDE5A): 0.01 to 1 µM

CCCc1nc(C)c2c(=O)[nH]c(-c3cc(C4CCC(C(=O)NO)CC4)ccc3OCC)nn12 (racemic) [Example 2-12, 4-[4-ethoxy-3-(5-methyl-4-oxo-7-propyl-3H-imidazo[5,1-f][1,2,4]triazin-2-yl)phenyl]cyclohexanecarbohydroxamic acid]
IC50 (HDAC6): 1 to 10 µM
IC50 (PDE5A): < 0.01 µM

O=C(/C=C/c1ccc(N2CC(=O)N3[C@H](c4ccc5c(c4)OCO5)c4[nH]c5ccccc5c4C[C@@H]3C2=O)cc1)NO [Example 4-01, (E)-N-Hydroxy-4-[6-(1,3-benzodioxol-5-yl)-2,3,6,7,12,12a-hexahydropyrazino[1′,2′:1,6]pyrido[3,4-b]indole-1,4-dion-2-yl]phenylprop-2-enamide]
IC50 (HDAC1): > 10 µM
IC50 (PDE5A): 0.01 to 1 µM

O=C(CCCN1CCC(N2CC(=O)N3[C@H](c4ccc5c(c4)OCO5)c4[nH]c5ccccc5c4C[C@@H]3C2=O)CC1)NO [Example 4-02]
IC50 (HDAC1): > 10 µM
IC50 (PDE5A): 0.01 to 1 µM

CCCc1nn(C)c2c(=O)[nH]c(-c3cc(-c4ccc(C(=O)NO)cn4)ccc3OCC)nc12 [Example 1-72]
IC50 (HDAC6): 0.01 to 1 µM
IC50 (PDE5A): < 0.01 µM

O=C(NO)c1cnc(N2CCC(N3CC(=O)N4C(Cc5c([nH]c6ccccc56)C4c4ccc5c(c4)OCO5)C3=O)CC2)nc1 (racemic) [Example 4-03, N-Hydroxy-2-(4-[6-(1,3-benzodioxol-5-yl)-2,3,6,7,12,12a-hexahydropyrazino[1′,2′:1,6]pyrido[3,4-b]indole-1,4-dion-2-yl]piperidin-1-yl)pyrimidine-5-carboxamide]
IC50 (HDAC1): 0.01 to 1 µM
IC50 (PDE5A): 0.01 to 1 µM

CCCc1nn(C)c2c(=O)[nH]c(-c3cc(-c4ccc(C(=O)NO)s4)ccc3OCC)nc12 [Example 1-71]
IC50 (HDAC6): 0.01 to 1 µM
IC50 (PDE5A): < 0.01 µM

CCCc1nc(C)c2c(=O)[nH]c(-c3cc(C4CCC(C(=O)NO)CC4)ccc3OCC)nn12 (stereo not drawn) [Example 2-13, 4-[4-ethoxy-3-(5-methyl-4-oxo-7-propyl-3H-imidazo[5,1-f][1,2,4]triazin-2-yl)phenyl]cyclohexanecarbohydroxamic acid]
IC50 (HDAC6): 0.01 to 1 µM
IC50 (PDE5A): < 0.01 µM

CCCc1nn(C)c2c(=O)[nH]c(-c3cc(C4CCC(C(=O)NO)CC4)ccc3OCC)nc12 (racemic) [Example 1-75, 4-[4-ethoxy-3-(1-methyl-7-oxo-3-propyl-6H-pyrazolo[4,3-d]pyrimidin-5-yl)phenyl]cyclohexanecarbohydroxamic acid]
IC50 (HDAC6): 1 to 10 µM
IC50 (PDE5A): 0.01 to 1 µM

CCCc1nc(C)c2c(=O)[nH]c(-c3cc(-c4ccc(C(=O)NO)cc4)ccc3OCC)nn12 [Example 2-11]
IC50 (HDAC6): 0.01 to 1 µM
IC50 (PDE5A): < 0.01 µM

CCCc1nn(C)c2c(=O)[nH]c(-c3cc(C4CC(C(=O)NO)C4)ccc3OCC)nc12 (racemic) [Example 1-82, 3-[4-ethoxy-3-(1-methyl-7-oxo-3-propyl-6H-pyrazolo[4,3-d]pyrimidin-5-yl)phenyl]cyclobutanecarbohydroxamic acid]
IC50 (HDAC6): 0.01 to 1 µM
IC50 (PDE5A): 0.01 to 1 µM

CCCc1nn(C)c2c(=O)[nH]c(-c3cc(NC4CCN(c5ccc(C(=O)NO)cc5)CC4)ccc3OCC)nc12 [Example 1-47]
IC50 (HDAC1): 1 to 10 µM
IC50 (HDAC6): 1 to 10 µM
IC50 (PDE5A): 0.01 to 1 µM

CCCc1nn(C)c2c(=O)[nH]c(-c3cc(-c4ccc(C(=O)NO)o4)ccc3OCC)nc12 [Example 1-74]
IC50 (HDAC6): 1 to 10 µM
IC50 (PDE5A): < 0.01 µM

CCCc1nn(C)c2c(=O)[nH]c(-c3cc(CC4CCC(C(=O)NO)CC4)ccc3OCC)nc12 (racemic) [Example 1-76, 4-[[4-ethoxy-3-(1-methyl-7-oxo-3-propyl-6H-pyrazolo[4,3-d]pyrimidin-5-yl)phenyl]methyl]cyclohexanecarbohydroxamic acid]
IC50 (HDAC6): 0.01 to 1 µM
IC50 (PDE5A): 0.01 to 1 µM

CCCc1nn(C)c2c(=O)[nH]c(-c3cc(CC4CCC(C(=O)NO)C4)ccc3OCC)nc12 (racemic) [Example 1-80, 3-[[4-ethoxy-3-(1-methyl-7-oxo-3-propyl-6H-pyrazolo[4,3-d]pyrimidin-5-yl)phenyl]methyl]cyclopentanecarbohydroxamic acid]
IC50 (HDAC6): 0.01 to 1 µM
IC50 (PDE5A): 0.01 to 1 µM

CCCc1nn(C)c2c(=O)[nH]c(-c3cc(C(O)c4ccc(C(=O)NO)cc4)ccc3OCC)nc12 (stereo not drawn) [Example 1-78, 4-[[4-ethoxy-3-(1-methyl-7-oxo-3-propyl-6H-pyrazolo[4,3-d]pyrimidin-5-yl)phenyl]-hydroxy-methyl]benzenecarbohydroxamic acid]
IC50 (HDAC6): 0.01 to 1 µM
IC50 (PDE5A): < 0.01 µM

CCCc1nc(C)c2c(=O)[nH]c(-c3cc(Cc4ccc(C(=O)NO)s4)ccc3OCC)nn12 [Example 2-10]
IC50 (HDAC6): 0.01 to 1 µM
IC50 (PDE5A): < 0.01 µM

CCCc1nn(C)c2c(=O)[nH]c(-c3cc(-c4ccc(C(=O)NO)nc4)ccc3OCC)nc12 [Example 1-73]
IC50 (HDAC6): 0.01 to 1 µM
IC50 (PDE5A): < 0.01 µM

CCCc1nn(C)c2c(=O)[nH]c(-c3cccc(OC4CCN(c5ncc(C(=O)NO)cn5)CC4)c3)nc12 [Example 1-14]
IC50 (HDAC1): 0.01 to 1 µM
IC50 (HDAC6): 0.01 to 1 µM
IC50 (PDE5A): 1 to 10 µM

CCCc1nn(C)c2c(=O)[nH]c(-c3cc(S(=O)(=O)N4CCN(C)CC4)ccc3OCC)nc12 [Sildenafil, reference compound]
IC50 (HDAC1): > 10 µM

CCCc1nc(C)c2c(=O)[nH]c(-c3cc(S(=O)(=O)N4CCN(Cc5ccc(/C=C/C(=O)NO)cc5)CC4)ccc3OCC)nn12 [Example 2-01, (E)-3-[4-[[4-[4-Ethoxy-3-(5-methyl-4-oxo-7-propyl-3H-imidazo[5,1-f][1,2,4]triazin-2-yl)phenyl]sulfonylpiperazin-1-yl]methyl]phenyl]prop-2-enehydroxamic acid]
IC50 (HDAC1): 1 to 10 µM
IC50 (PDE5A): < 0.01 µM

O=C(/C=C/c1ccc(CN2CCC(N3CC(=O)N4[C@H](c5ccc6c(c5)OCO6)c5[nH]c6ccccc6c5C[C@@H]4C3=O)CC2)cc1)NO [Example 4-04]
IC50 (HDAC1): 0.01 to 1 µM
IC50 (PDE5A): 0.01 to 1 µM
